Here are results for 17 molecules from ChEMBL document CHEMBL4425147, “Preparation, biological evaluation and molecular docking study of imidazolyl dihydropyrimidines as potential Mycobacterium tuberculosis dihydrofolate reductase inhibitors” (Bioorg Med Chem Lett, 2016).

Converted amounts (≈) assume the structure as drawn. Some results are limits rather than exact numbers.

The subject of series [1] is Vero. The series is described as follows: Cytotoxicity against African green monkey Vero cells assessed as reduction in cell viability after 72 hrs by MTT assay. Type of series: cell-based. The settings on record: Chlorocebus sabaeus. For orientation: Formazan colour is commonly taken as a measure of viable cells.
Series [2] deals with Mycobacterium tuberculosis. The series is described as follows: Antitubercular activity against Mycobacterium tuberculosis H37Rv ATCC 27294 by MABA. In kind it is functional. A general note: Alamar Blue is a resazurin reagent that responds to reducing activity.
In series [3] the test system is Mycobacterium tuberculosis. In words: Antitubercular activity against Mycobacterium tuberculosis H37Rv ATCC 27294 at 6.25 ug/ml by MABA. Type of series: functional.
Series [4] is described as follows: Ratio of EC90 for Mycobacterium tuberculosis Erdman infected in mouse bone marrow macrophage monolayers to MIC for Mycobacterium tuberculosis H37Rv ATCC 27294. In kind it is functional.
Series [5] deals with Mycobacterium tuberculosis. In words: Bactericidal activity against Mycobacterium tuberculosis Erdman infected in mouse bone marrow macrophage monolayers assessed as reduction in colony forming units at 4 fold MIC concentration after 7 days. Particulars: Erdman = ATCC 35801, 168 h. In kind it is functional.
Series [6] in a line: Selectivity ratio of IC50 for African green monkey Vero cells to MIC for Mycobacterium tuberculosis H37Rv ATCC 27294. In kind it is toxicity. Particulars: read-out: Selectivity Index.
In series [7] the test system is Mycobacterium tuberculosis. In words: Bacteriostatic activity against Mycobacterium tuberculosis Erdman infected in mouse bone marrow macrophage monolayers assessed as reduction in colony forming units at 4 fold MIC concentration after 7 days. In kind it is functional. The settings on record: Erdman = ATCC 35801, 168 h.

Consider `CCCCc1nc(Cl)c(C2NC(=O)NC(C)=C2C(=O)Nc2ccc(F)cc2)[nH]1` (stereo not given), for which the IC50 (as a rule, the concentration that gives 50% inhibition) in series [1] was over 10 µg/mL. Moreover, in series [2], the MIC90 (as a rule, an inhibitory concentration at the 90% level, which refers to growth in some studies and to a panel of isolates in others) was determined as 0.39 µg/mL (≈ 0.961 µM). Further, the inhibition (usually the share of the control response that was lost under treatment) at 6.25 µg/mL in series [3] worked out at 99%. The Ratio in series [4] is 0.1. The EC99 – broadly, the concentration at which the effect reaches the 99% level – in series [5] is 0.54 µg/mL. Moreover, the selectivity ratio in series [6] is over 25.6. In addition, in series [7], the concentration for an effect of 90% (EC90) (commonly the concentration needed for an effect of 90%) is 0.039 µg/mL (≈ 0.0961 µM).

As to `CCCCc1nc(Cl)c(C2NC(=O)NC(C)=C2C(=O)Nc2ccccc2C)[nH]1` (stereo not given), in series [3], the inhibition at 6.25 µg/mL was 63%.

As for `CCCCc1nc(Cl)c(C2NC(=O)NC(C)=C2C(=O)Nc2ccc(OC)cc2)[nH]1` (stereo not given), the inhibition at 6.25 µg/mL in series [3] is 89%.

Molecule `CCCCc1nc(Cl)c(C2NC(=O)NC(C)=C2C(=O)Nc2cccc(C)c2)[nH]1` (stereo not given) came in with an inhibition at 6.25 µg/mL in series [3] of 65%.

`CCCCc1nc(Cl)c(C2NC(=O)NC(C)=C2C(=O)Nc2ccc(C)cc2)[nH]1` (stereo not given) gave an inhibition at 6.25 µg/mL in series [3] of 72%.

Consider `CCCCc1nc(Cl)c(C2NC(=O)NC(C)=C2C(=O)Nc2ccccc2Cl)[nH]1` (stereo not given), for which the IC50 in series [1] stood at 7.6 µg/mL (≈ 18 µM). For the same molecule, the MIC90 in series [2] is 1.56 µg/mL (≈ 3.69 µM). Moreover, in series [3], the inhibition at 6.25 µg/mL was found to be 92%. In series [6], the selectivity ratio is 4.87.

For `CCCCc1nc(Cl)c(C2NC(=O)NC(C)=C2C(=O)Nc2cccc(F)c2)[nH]1` (stereo not given), in series [3], the inhibition at 6.25 µg/mL worked out at 85%.

`CCCCc1nc(Cl)c(C2NC(=O)NC(C)=C2C(=O)Nc2cccc([N+](=O)[O-])c2)[nH]1` (stereo not given): at 6.25 µg/mL the inhibition in series [3] was 76%.

As for `CCCCc1nc(Cl)c(C2NC(=O)NC(C)=C2C(=O)Nc2ccccc2)[nH]1` (stereo not given), in series [3], 6.25 µg/mL produced 59% inhibition.

For `CCCCc1nc(Cl)c(C2NC(=O)NC(C)=C2C(=O)Nc2ccccc2OC)[nH]1` (stereo not given), the inhibition at 6.25 µg/mL in series [3] worked out at 79%.

On to `CCCCc1nc(Cl)c(C2NC(=O)NC(C)=C2C(=O)Nc2ccc([N+](=O)[O-])cc2)[nH]1` (stereo not given), for which the IC50 in series [1] was over 10 µg/mL. For the same molecule, the MIC90 in series [2] stood at 0.78 µg/mL (≈ 1.8 µM). In series [3], the inhibition at 6.25 µg/mL came to 98%. Moreover, the Ratio in series [4] was 0.09. For the same molecule, the EC99 in series [5] amounted to 0.59 µg/mL. Also, the selectivity ratio in series [6] is over 12.8. Further, the EC90 in series [7] came out at 0.074 µg/mL (≈ 0.171 µM).

Consider `CCCCc1nc(Cl)c(C2NC(=O)NC(C)=C2C(=O)Nc2ccccc2F)[nH]1` (stereo not given), for which the IC50 in series [1] was over 10 µg/mL. Further, the MIC90 in series [2] was found to be 3.12 µg/mL (≈ 7.69 µM). In series [3], this molecule registered an inhibition at 6.25 µg/mL of 90%. Also, in series [6], the selectivity ratio is over 3.12.

Consider `CCCCc1nc(Cl)c(C2NC(=O)NC(C)=C2C(=O)Nc2ccc(Cl)cc2)[nH]1` (stereo not given), for which the IC50 in series [1] came to 9.4 µg/mL (≈ 22.3 µM). Moreover, the MIC90 in series [2] was determined as 0.39 µg/mL (≈ 0.923 µM). In series [3], the inhibition at 6.25 µg/mL is 97%. Moreover, the Ratio in series [4] turned out to be 0.26. Further, the EC99 in series [5] is 0.69 µg/mL. Also, the selectivity ratio in series [6] stood at 24.1. The 90% effect concentration (EC90) in series [7] is 0.102 µg/mL (≈ 0.242 µM).

`CCCCc1nc(Cl)c(C2NC(=O)NC(C)=C2C(=O)Nc2ccccc2[N+](=O)[O-])[nH]1` (stereo not given) gave an inhibition at 6.25 µg/mL in series [3] of 82%.

`CCCCc1nc(Cl)c(C2NC(=O)NC(C)=C2C(=O)Nc2cccc(OC)c2)[nH]1` (stereo not given) displayed an inhibition at 6.25 µg/mL in series [3] of 72%.

`CCCCc1nc(Cl)c(C2NC(=O)NC(C)=C2C(=O)Nc2cccc(Cl)c2)[nH]1` (stereo not given) returned an inhibition at 6.25 µg/mL in series [3] of 89%.

For the molecule `NNC(=O)c1ccncc1` [ISONIAZID], the MIC90 in series [2] lay within 0.03 to 0.06 µg/mL (≈ 0.219 to 0.438 µM). Further, the Ratio in series [4] is 1. Besides, the EC99 in series [5] was determined as 0.42 µg/mL. Besides, in series [6], the selectivity ratio is over 40000. For the same molecule, in series [7], the EC90 came to 0.03 µg/mL (≈ 0.219 µM).
